Laboratory results taken from ChEMBL document CHEMBL1126695, “Orally active water-soluble N,O-acyl transfer products of a beta,gamma-bishydroxyl amide containing renin inhibitor” (J Med Chem, 1993).
Values after ≈ are worked out from the molar mass of the structure shown.

Experiments:
Format in all cases: ADME
[1] = Evaluated for the solubility in water at 5.8 pH of filtered solution; details: pH 5.8, read-out: S
[2] = Evaluated the half life period in CH3CN / buffer, pH 7.4 at 37 degree C
[3] = Evaluated the half life period in distilled water at room temperature
[4] = Evaluated for the solubility in 0.10 N HCl at 1.6 pH of filtered solution; details: pH 1.6, read-out: S
[5] = Evaluated for the solubility in pH 6.0 buffer suspended at 5 mg / mL at 6.0 pH of filtered solution
[6] = Evaluated for the solubility in water at 4.8 pH of filtered solution; details: pH 4.8, read-out: S
[7] = Evaluated for the solubility in pH 7.4 buffer suspended at 5 mg / mL at 7.4 pH of filtered solution
[8] = Evaluated for the solubility in 0.10 N HCl at 1.5 pH of filtered solution; details: pH 1.5, read-out: S
[9] = Evaluated for the solubility in water at 3.3 pH of filtered solution; details: pH 3.3, read-out: S
[10] = Evaluated for the solubility in 0.10 N HCl at 1.7 pH of filtered solution; details: pH 1.7, read-out: S
[11] = Evaluated for the solubility in water at 3.2 pH of filtered solution; details: pH 3.2, read-out: S

With `CC(C)C[C@H](O)C(O)[C@H](CC1CCCCC1)NC(=O)[C@H](Cc1csc(N)n1)NC(=O)[C@H](Cc1ccccc1)NS(=O)(=O)N1CCOCC1` (stereo partly drawn) the solubility [1] was 2 µg/mL (≈ 2.82 µM).

With `CC(C)C[C@H](O)C(OC(=O)[C@H](Cc1csc(N)n1)NC(=O)[C@H](Cc1ccccc1)NS(=O)(=O)N1CCOCC1)[C@@H](N)CC1CCCCC1` (stereo partly drawn) the half-life [2] was 1 min and the half-life [3] was greater than 96 h.

Compound `CC(C)C[C@H](O)C(O)[C@H](CC1CCCCC1)NC(=O)[C@H](Cc1csc(N)n1)NC(=O)[C@H](Cc1ccccc1)NS(=O)(=O)N1CCOCC1.Cl` (stereo partly drawn) has a solubility [4] of 6600 µg/mL, a solubility [5] of 1 µg/mL and a solubility [6] of 20 µg/mL. It also gave a solubility [7] of 1 µg/mL.

`CC(C)C[C@H](O)C(OC(=O)[C@H](Cc1csc(N)n1)NC(=O)[C@H](Cc1ccccc1)NS(=O)(=O)N1CCOCC1)[C@@H](N)CC1CCCCC1.Cl` (stereo partly drawn) showed a solubility [8] of 54600 µg/mL and a solubility [9] of 17600 µg/mL.

With `CC(C)C[C@H](OC(=O)[C@H](Cc1csc(N)n1)NC(=O)[C@H](Cc1ccccc1)NS(=O)(=O)N1CCOCC1)C(O)[C@@H](N)CC1CCCCC1.Cl` (stereo partly drawn) the solubility [10] was 71300 µg/mL, the solubility [5] was 1940 µg/mL and the solubility [11] was 20900 µg/mL. For the same compound, the solubility [7] was 300 µg/mL.
